Source: ChEMBL document CHEMBL1139960 (Bioorg Med Chem Lett, 2007)
Calls of active or inactive are those of the source. No cut-off for these calls is given here.

Legend:
[1] = (§1) Antagonist activity at GABAC rho1 receptor expressed in Xenopus laevis oocytes assessed as reduction of GABA-induced chloride ion currents; assay type: functional, cell-based; settings: Homo sapiens, Oocyte
[2] = test system: Oocyte; assay: as §1; assay type: functional, cell-based; settings: Homo sapiens
[3] = test system: Oocyte; assay: Activity at GABAC rho1 receptor expressed in Xenopus laevis oocytes assessed as activation of GABA-induced chloride ion currents; assay type: cell-based; settings: Homo sapiens

SMILES	IC50 [1]	Activity [2]	Activity [3]
CCCCP(=O)(O)OCCN	68.2 µM	–	–
CP(=O)(O)C1=CCNCC1	0.67 µM	–	–
NCCOP(=O)(O)Cc1ccccc1	–	inactive	inactive
